The record followed here is ChEMBL document CHEMBL4814018, “Rationally designed TNF-α inhibitors: Identification of promising cytotoxic agents” (Bioorg Med Chem Lett, 2021).

A word on the IC50: it is the midpoint of a concentration-inhibition curve. A high value points to lower potency.

The source made the active and inactive calls. The rule behind the calls is not given here.

The test system of experiment [1] is BV-2. The experiment in a line: Cytotoxicity against mouse BV2 cells incubated for 48 hrs by MTT assay. It is filed as cell-based. The following applies: BV-2, 48 h. A general note: Formazan colour is commonly taken as a measure of viable cells.
A short description of experiment [2]: Therapeutic index, ratio of LC50 for human Panel NCI-60 (60 carcinoma cell lines) to GI50 for human Panel NCI-60 (60 carcinoma cell lines). In kind it is functional.
Another experiment concerns OVCAR-3. The experiment in a line: Growth inhibition of human OVCAR-3 cells at 10 uM incubated for 48 hrs by sulforhodamine B assay relative to control. In kind it is functional. The conditions noted are these: read-out: GI.
In a further experiment the test system is MCF7. In words: Growth inhibition of human MCF7 cells at 10 uM incubated for 48 hrs by sulforhodamine B assay relative to control. In kind it is functional. The following applies: read-out: GI.
Experiment [3] has as its system BV-2. In words: Antiinflammatory activity against mouse BV2 cells assessed as reduction in LPS-induced IL6 production at 1 uM by enzyme immunoassay. It is filed as functional, cell-based.
The subject of another experiment is SR. The experiment in a line: Growth inhibition of human SR cells at 10 uM incubated for 48 hrs by sulforhodamine B assay relative to control. It is filed as functional. The following applies: read-out: GI. On the technique in general: The SRB assay estimates cell density from bound dye.
Experiment [4] relates to BV-2. The experiment in a line: Antiinflammatory activity against mouse BV2 cells assessed as decrease in LPS-induced NO production at 1 to 5 uM pretreated with compound followed by LPS stimulation incubated for 4 to 48 hrs by enzyme immunoassay. In kind it is functional, cell-based. The following applies: dose 1-5 µM, time 4-48 hrs.
Another experiment relates to K562. The experiment in a line: Growth inhibition of human K562 cells at 10 uM incubated for 48 hrs by sulforhodamine B assay relative to control. It is filed as functional. The following applies: read-out: GI.
Experiment [5] concerns BV-2. The experiment in a line: Antiinflammatory activity against mouse BV2 cells assessed as inhibition of LPS-induced TNFalpha production at 1 uM by enzyme immunoassay. In kind it is functional.
For another experiment, the system named is MDA-MB-231. In words: Growth inhibition of human MDA-MB-231 cells at 10 uM incubated for 48 hrs by sulforhodamine B assay relative to control. It is filed as functional. The following applies: read-out: GI.
The subject of a further experiment is SW-620. The experiment in a line: Growth inhibition of human SW-620 cells at 10 uM incubated for 48 hrs by sulforhodamine B assay relative to control. It is filed as functional. The following applies: read-out: GI.
Another experiment relates to RPMI-8226. The experiment in a line: Growth inhibition of human RPMI8226 cells at 10 uM incubated for 48 hrs by sulforhodamine B assay relative to control. In kind it is functional. The conditions noted are these: read-out: GI.
The test system of a further experiment is HCT-116. The experiment in a line: Growth inhibition of human HCT-116 cells at 10 uM incubated for 48 hrs by sulforhodamine B assay relative to control. In kind it is functional. The following applies: read-out: GI.
Another experiment concerns CAKI-1. The experiment in a line: Growth inhibition of human CAKI-1 cells at 10 uM incubated for 48 hrs by sulforhodamine B assay relative to control. In kind it is functional. The following applies: read-out: GI.

In turn, `C=CCn1cc(C2C(Cl)C(=O)N2c2ccc(N3CCOCC3=O)cc2)c2ccccc21` (centres undefined) gave an IC50 with BV-2 [1] of more than 10 µM.

`O=c1[nH]cc(F)c(=O)[nH]1` [FLUOROURACIL]: in experiment [2], the TI was more than 133.

On to `Cc1ccc(S(=O)(=O)n2cc(C3C(Cl)C(=O)N3c3ccc(N4CCOCC4=O)cc3)c3ccccc32)cc1` (centres undefined), for which the inhibition of growth at 10 µM with OVCAR-3 came to 70%; in the experiment on MCF7, 80%; with SR it was 75%; in the experiment on K562, 77%; in the experiment on MDA-MB-231, 83%; in the experiment on SW-620, 74%. In addition, the inhibition of growth at 10 µM in the experiment on RPMI-8226 turned out to be 78%; with HCT-116, 83%; in the experiment on CAKI-1, 75%. The result with BV-2 [3], in the experiment with BV-2 [4] and in the experiment on BV-2 [5] was Active. The compound further displayed an IC50 in the experiment with BV-2 [1] of more than 10 µM.

Compound `O=C1COCCN1c1ccc(N2C(=O)C(Cl)C2c2cn(Cc3ccc(F)cc3)c3ccccc23)cc1` (centres undefined) had an IC50 in the experiment with BV-2 [1] of more than 10 µM.

As to `O=C1COCCN1c1ccc(N2C(=O)C(Cl)C2c2cn(Cc3ccc4ccccc4c3)c3ccccc23)cc1` (centres undefined), the outcome with BV-2 [3] and with BV-2 [5] was Active. In the experiment on BV-2 [1], the IC50 was more than 10 µM.

In turn, `O=C1COCCN1c1ccc(N2C(=O)C(Cl)C2c2cn(Cc3ccccc3)c3ccccc23)cc1` (centres undefined) gave an IC50 with BV-2 [1] of more than 10 µM.

For `O=C1COCCN1c1ccc(N2C(=O)C(Cl)C2c2cn(Cc3ccc(Cl)cc3)c3ccccc23)cc1` (centres undefined), in the experiment with BV-2 [1], the IC50 is more than 10 µM.

Turning to `C#CCn1cc(C2C(Cl)C(=O)N2c2ccc(N3CCOCC3=O)cc2)c2ccccc21` (centres undefined), in the experiment on BV-2 [4], the outcome was Active. In addition, in the experiment with BV-2 [1], the IC50 was more than 10 µM.

In the case of `COc1cccc2c1C(=O)c1c(O)c3c(c(O)c1C2=O)C[C@@](O)(C(=O)CO)C[C@@H]3O[C@H]1C[C@H](N)[C@H](O)[C@H](C)O1` [DOXORUBICIN], the TI in experiment [2] was 134.
